Source: patent US9855338B2, “Polyglutamate-amino acid conjugates and methods” (priority 2005, dated 2018)
Like-named read-outs stand apart in the source and are kept apart here.

Legend:
B16F0 melanoma cells = test: In vitro cellular uptake, fluorescence microscopy; type: cell-based, murine
Description: B16F0 cells were purchased from ATCC (CRL-6322, ATCC American Type Culture Collection, Rockville, Md.) and were grown in Dulbecco's modified Eagle's medium (DMEM) with 10% fetal bovine serum and 100 units/mL penicillin. The cells were grown at 37° C. in 5% CO2 environment. The culture medium was removed and discarded. The cells were rinsed with Dulbecco Phosphate Buffer Solution (DPBS), Trypsin-ethylenediaminetetra-acetic acid (EDTA) solution (0.5 ml) was added, and the cells were observed under an inverted microscope to make sure that they were dispersed. Complete growth medium (6.0 to 8.0 ml) was added, and the cells were aspirated by gently pipetting. The cell suspension in appropriate aliquots was transferred to new culture plates. […]
PGA-97-A-Texas Red and Texas Red dye (TR) were separately dissolved in DPBS. […] The treated cells were examined under an OLYMPUS fluorescence microscope, and the excitation and emission wavelengths were measured at 591 and 612 nm, respectively.
Three sample containers containing approximately the same number of B16F0 melanoma cells were incubated with PGA-97-A-Texas Red at 1 μM, PGA-97-A-Texas Red at 0.1 μM, and Texas Red alone at 10 μM, respectively, for 24 hours. Photographs of the in vitro cellular uptake of each container were taken with the camera on an Olympus fluorescence microscope system. […]

[1] = tested on: murine melanoma cells (B16F0) tumor; test: In vivo tumor tissue uptake, syngeneic tumor model, cryostat sections; details: 24 hours after intravenous administration, nu/nu mice
Description: Animals: Nu/nu mice, female, 6-8 weeks (22-25 g). Solitary tumors were produced by injecting 2×10^5 murine melanoma cells (B16F0) to the right thigh subcutaneously. 5-7 days later when the tumor reached about 500 mm^3, the PGA-97-A-Texas Red or Texas Red dye was injected intravenously to the tumor.
PGA-97-A-Texas Red and Texas Red were separately dissolved in DPBS and were filtrated through a 0.2 μm filter before being administrated to the animals. 100 μl of PGA-97-A-Texas Red (TR loading at 2.5%) or Texas Red at 0.1-10 mM was intravenously injected to the tumor using the syngeneic tumor model in Example 19. Tumors were dissected, embedded under optimal cutting temperature and frozen in liquid nitrogen. Cryostat sections (6-15 μm) were made and were fixed with 4% paraformaldehyde with 0.03M of sucrose on ice for 10-30 min. The sections were washed 2 times with DPBS, stained with Hoechst 33342 (1 μg/ml) for 10 minutes, and washed again with DPBS. The sections were then mounted with a fluorescent mounting medium (DakoCytomation) and covered with a coverslip. The cryostat sections of the tumor were observed under laser scan confocal microscopy.
Photographs of the cryostat cross-section of in vivo tumor tissue uptake of PGA-97-A-Texas Red and Texas Red dye alone were taken. For each, three different cross-sections were taken for a total of six images. […]

[2] = Description: Each polymer (5 mg) was added into a pH buffer (1 mL) and the mixture was sonificated for 2 minutes. Then the mixture was allowed to settle at room temperature for 30 minutes. Solubility was observed by eye and recorded on the scale of 1 to 10, where 1 is highly insoluble, 5 is a cloudy suspension, and 10 is a highly clear solution.

Substance | cellular uptake of Texas red dye (B16F0 melanoma cells; 0.1 μM to 10 μM, 8-24 hours, fluorescence microscope) | cells that were red (cellular uptake of dye) (B16F0 melanoma cells; 10 μM, 24 hours, B16F0 melanoma cells) [%] | accumulation of Texas red dye in tumor cells in vivo [1] | Solubility ([2]; pH 2) | Solubility ([2]; pH 3) | Solubility ([2]; pH 4) | Solubility ([2]; pH 5) | Solubility ([2]; pH 6) | Solubility ([2]; pH 7) | Solubility ([2]; pH 7.4)
Texas Red | not | 0 | not |  |  |  |  |  |  | 
Poly-(γ-glutamyl)-poly-L-glutamine [PGPG-19,800] |  |  |  | 10 | 10 | 10 | 10 | 10 | 10 | 10
